Measurements reported in PubChem BioAssay (NCI).
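In this assay, cells in 96-well plates receive the compound at five concentrations for 48 hours. Endpoints are linearly interpolated between the surrounding concentrations. TGI: concentration producing complete growth inhibition.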

Key:
Assay in all cases: inhibition of tumour cell growth, NCI panel, 48 h
786-0 renal = tested on: 786-0 renal
A498 renal = tested on: A498 renal
A549 NSCLC = tested on: A549 NSCLC
ACHN renal = tested on: ACHN renal
BT-549 breast = tested on: BT-549 breast
CAKI-1 renal = tested on: CAKI-1 renal
CCRF-CEM leukemia = tested on: CCRF-CEM leukemia
COLO 205 colon = tested on: COLO 205 colon
DU-145 prostate = tested on: DU-145 prostate
EKVX NSCLC = tested on: EKVX NSCLC
HCC-2998 colon = tested on: HCC-2998 colon
HCT-116 colon = tested on: HCT-116 colon
HCT-15 colon = tested on: HCT-15 colon
HL-60(TB) leukemia = tested on: HL-60(TB) leukemia
HOP-62 NSCLC = tested on: HOP-62 NSCLC
HOP-92 NSCLC = tested on: HOP-92 NSCLC
HS 578T breast = tested on: HS 578T breast
HT29 colon = tested on: HT29 colon
IGROV1 ovarian = tested on: IGROV1 ovarian
K-562 leukemia = tested on: K-562 leukemia
KM12 colon = tested on: KM12 colon
LOX IMVI melanoma = tested on: LOX IMVI melanoma
M14 melanoma = tested on: M14 melanoma
MCF7 breast = tested on: MCF7 breast
MDA-MB-231 breast = tested on: MDA-MB-231 breast
MDA-MB-435 = tested on: MDA-MB-435
MDA-N = tested on: MDA-N
MOLT-4 leukemia = tested on: MOLT-4 leukemia
NCI-H460 lung = tested on: NCI-H460 lung
NCI/ADR-RES ovarian = tested on: NCI/ADR-RES ovarian
OVCAR-3 ovarian = tested on: OVCAR-3 ovarian
OVCAR-4 ovarian = tested on: OVCAR-4 ovarian
OVCAR-5 ovarian = tested on: OVCAR-5 ovarian
OVCAR-8 ovarian = tested on: OVCAR-8 ovarian
PC-3 prostate = tested on: PC-3 prostate
RPMI-8226 leukemia = tested on: RPMI-8226 leukemia
RXF 393 renal = tested on: RXF 393 renal
SF-268 CNS = tested on: SF-268 CNS
SF-295 CNS = tested on: SF-295 CNS
SF-539 CNS = tested on: SF-539 CNS
SK-MEL-2 melanoma = tested on: SK-MEL-2 melanoma
SK-MEL-28 melanoma = tested on: SK-MEL-28 melanoma
SK-MEL-5 melanoma = tested on: SK-MEL-5 melanoma
SK-OV-3 ovarian = tested on: SK-OV-3 ovarian
SN12C renal = tested on: SN12C renal
SNB-19 CNS = tested on: SNB-19 CNS
SNB-75 CNS = tested on: SNB-75 CNS
SR leukemia = tested on: SR leukemia
SW-620 colon = tested on: SW-620 colon
T-47D breast = tested on: T-47D breast
TK-10 renal = tested on: TK-10 renal
U251 CNS = tested on: U251 CNS
UACC-257 melanoma = tested on: UACC-257 melanoma
UACC-62 melanoma = tested on: UACC-62 melanoma
UO-31 renal = tested on: UO-31 renal
MALME-3M melanoma = tested on: MALME-3M melanoma
NCI-H226 lung = tested on: NCI-H226 lung
NCI-H23 lung = tested on: NCI-H23 lung
NCI-H522 lung = tested on: NCI-H522 lung

Question: What does the source list for `CSc1ccc(/C=C2\N=C(c3ccccc3)N(c3nc4cc(Cl)c(F)cc4s3)C2=O)cc1`?
Answer: TGI (786-0 renal): > 100 µM; TGI (A498 renal): > 100 µM; TGI (A549 NSCLC): > 100 µM; TGI (ACHN renal): > 100 µM; TGI (BT-549 breast): > 100 µM; TGI (CAKI-1 renal): > 100 µM; TGI (CCRF-CEM leukemia): 55.6 µM; TGI (COLO 205 colon): > 100 µM; TGI (DU-145 prostate): > 100 µM; TGI (EKVX NSCLC): > 100 µM; TGI (HCC-2998 colon): > 100 µM; TGI (HCT-116 colon): > 100 µM; TGI (HCT-15 colon): > 100 µM; TGI (HL-60(TB) leukemia): > 100 µM; TGI (HOP-62 NSCLC): 98.7 µM; TGI (HOP-92 NSCLC): > 100 µM; TGI (HS 578T breast): 97.3 µM; TGI (HT29 colon): > 100 µM; TGI (IGROV1 ovarian): > 100 µM; TGI (K-562 leukemia): > 100 µM; TGI (KM12 colon): > 100 µM; TGI (LOX IMVI melanoma): 55.6 µM; TGI (M14 melanoma): > 100 µM; TGI (MCF7 breast): > 100 µM; TGI (MDA-MB-231 breast): > 100 µM; TGI (MDA-MB-435): > 100 µM; TGI (MDA-N): > 100 µM; TGI (MOLT-4 leukemia): > 100 µM; TGI (NCI-H460 lung): > 100 µM; TGI (NCI/ADR-RES ovarian): 99.1 µM; TGI (OVCAR-3 ovarian): 60.1 µM; TGI (OVCAR-4 ovarian): 82.7 µM; TGI (OVCAR-5 ovarian): > 100 µM; TGI (OVCAR-8 ovarian): 51.7 µM; TGI (PC-3 prostate): > 100 µM; TGI (RPMI-8226 leukemia): > 100 µM; TGI (RXF 393 renal): 57.5 µM; TGI (SF-268 CNS): > 100 µM; TGI (SF-295 CNS): > 100 µM; TGI (SF-539 CNS): 82.6 µM; TGI (SK-MEL-2 melanoma): 50.4 µM; TGI (SK-MEL-28 melanoma): > 100 µM; TGI (SK-MEL-5 melanoma): > 100 µM; TGI (SK-OV-3 ovarian): > 100 µM; TGI (SN12C renal): > 100 µM; TGI (SNB-19 CNS): 76.6 µM; TGI (SNB-75 CNS): 66.6 µM; TGI (SR leukemia): > 100 µM; TGI (SW-620 colon): > 100 µM; TGI (T-47D breast): > 100 µM; TGI (TK-10 renal): > 100 µM; TGI (U251 CNS): 41.7 µM; TGI (UACC-257 melanoma): > 100 µM; TGI (UACC-62 melanoma): > 100 µM; TGI (UO-31 renal): > 100 µM

Question: For `C[C@H]1[C@H](C)CC[C@]2(C(=O)OC3OC(CO)C(O)C(O)C3O)CC[C@]3(C)C(=CC[C@@H]4[C@@]5(C)C[C@@H](O)[C@@H]6OC(=O)c7cc(O)c(O)c(O)c7-c7c(cc(O)c(O)c7O)C(=O)OC[C@@]6(CO)[C@@H]5CC[C@]43C)[C@H]12` (some centres undefined), which TGI (786-0 renal) is on record?
Answer: > 53.7 µM

Question: What about the TGI (A498 renal) of the same molecule?
Answer: > 100 µM

Question: And the TGI (A549 NSCLC)?
Answer: > 100 µM

Question: And the TGI (ACHN renal)?
Answer: > 100 µM

Question: What about the TGI (BT-549 breast) of the same molecule?
Answer: > 100 µM

Question: And the TGI (CAKI-1 renal)?
Answer: > 100 µM

Question: And the TGI (CCRF-CEM leukemia)?
Answer: 98.7 µM

Question: And the TGI (COLO 205 colon)?
Answer: > 100 µM

Question: What about the TGI (DU-145 prostate) of the same molecule?
Answer: > 100 µM

Question: And the TGI (EKVX NSCLC)?
Answer: > 100 µM

Question: What about the TGI (HCC-2998 colon) of the same molecule?
Answer: > 100 µM

Question: And the TGI (HCT-116 colon)?
Answer: > 100 µM

Question: And the TGI (HCT-15 colon)?
Answer: > 100 µM

Question: What about the TGI (HL-60(TB) leukemia) of the same molecule?
Answer: > 100 µM

Question: What about the TGI (HOP-62 NSCLC) of the same molecule?
Answer: > 100 µM

Question: What about the TGI (HOP-92 NSCLC) of the same molecule?
Answer: > 100 µM

Question: What about the TGI (HS 578T breast) of the same molecule?
Answer: > 100 µM

Question: And the TGI (HT29 colon)?
Answer: > 57.9 µM

Question: What about the TGI (IGROV1 ovarian) of the same molecule?
Answer: > 100 µM

Question: And the TGI (K-562 leukemia)?
Answer: 78.5 µM

Question: And the TGI (KM12 colon)?
Answer: > 100 µM

Question: And the TGI (LOX IMVI melanoma)?
Answer: 35.9 µM

Question: And the TGI (M14 melanoma)?
Answer: > 100 µM

Question: And the TGI (MALME-3M melanoma)?
Answer: > 100 µM

Question: And the TGI (MCF7 breast)?
Answer: 36.4 µM

Question: And the TGI (MDA-MB-231 breast)?
Answer: 37 µM

Question: And the TGI (MDA-MB-435)?
Answer: 37.2 µM

Question: And the TGI (MDA-N)?
Answer: 51.4 µM

Question: What about the TGI (MOLT-4 leukemia) of the same molecule?
Answer: > 100 µM

Question: What about the TGI (NCI-H226 lung) of the same molecule?
Answer: > 100 µM

Question: And the TGI (NCI-H23 lung)?
Answer: > 100 µM

Question: And the TGI (NCI-H460 lung)?
Answer: > 100 µM

Question: What about the TGI (NCI-H522 lung) of the same molecule?
Answer: > 100 µM

Question: What about the TGI (NCI/ADR-RES ovarian) of the same molecule?
Answer: > 100 µM

Question: What about the TGI (OVCAR-3 ovarian) of the same molecule?
Answer: > 91.4 µM

Question: And the TGI (OVCAR-4 ovarian)?
Answer: 75.3 µM

Question: What about the TGI (OVCAR-5 ovarian) of the same molecule?
Answer: > 100 µM

Question: And the TGI (OVCAR-8 ovarian)?
Answer: > 100 µM

Question: What about the TGI (PC-3 prostate) of the same molecule?
Answer: > 100 µM

Question: And the TGI (RPMI-8226 leukemia)?
Answer: > 100 µM

Question: And the TGI (RXF 393 renal)?
Answer: > 100 µM

Question: What about the TGI (SF-268 CNS) of the same molecule?
Answer: > 100 µM

Question: What about the TGI (SF-295 CNS) of the same molecule?
Answer: > 100 µM

Question: What about the TGI (SF-539 CNS) of the same molecule?
Answer: > 100 µM

Question: And the TGI (SK-MEL-2 melanoma)?
Answer: > 100 µM

Question: And the TGI (SK-MEL-28 melanoma)?
Answer: > 100 µM

Question: What about the TGI (SK-MEL-5 melanoma) of the same molecule?
Answer: > 100 µM

Question: And the TGI (SK-OV-3 ovarian)?
Answer: > 100 µM

Question: What about the TGI (SN12C renal) of the same molecule?
Answer: > 100 µM

Question: And the TGI (SNB-19 CNS)?
Answer: > 100 µM

Question: What about the TGI (SNB-75 CNS) of the same molecule?
Answer: > 100 µM

Question: What about the TGI (SR leukemia) of the same molecule?
Answer: > 100 µM

Question: What about the TGI (SW-620 colon) of the same molecule?
Answer: > 67 µM

Question: And the TGI (T-47D breast)?
Answer: > 100 µM

Question: And the TGI (TK-10 renal)?
Answer: > 100 µM

Question: And the TGI (U251 CNS)?
Answer: > 100 µM

Question: What about the TGI (UACC-257 melanoma) of the same molecule?
Answer: > 100 µM

Question: What about the TGI (UACC-62 melanoma) of the same molecule?
Answer: > 100 µM

Question: What about the TGI (UO-31 renal) of the same molecule?
Answer: > 100 µM
